From patent US8192962B2, “Processes for detecting toxic substances” (Daikin Industries, Ltd., priority 2001, dated 2012)

Tested on: Detoxification protein genes
Assay: DNA chip mRNA expression in yeast, detoxification protein genes (Table 8)
Type: cell-based, Saccharomyces cerevisiae S288C
Summary of the method: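 Values are treated/untreated fluorescence ratios from a whole-genome yeast DNA chip hybridized over 12 hours at 65° C with Cy3- or Cy5-labelled cDNA from poly(A) mRNA. Log-phase S288C yeast in YPD at 25° C had received a single toxic chemical for two hours, dosed to slow growth without killing.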

Na2As [(1)]
The level of expressed mRNA in the presence of chemical substance/The level of expressed mRNA in the absence of chemical substance (yeast gene YBR244W): 0.6 | The level of expressed mRNA in the presence of chemical substance/The level of expressed mRNA in the absence of chemical substance (yeast gene YBR293W): 1.9 | The level of expressed mRNA in the presence of chemical substance/The level of expressed mRNA in the absence of chemical substance (yeast gene YCL035C): 2.0 | The level of expressed mRNA in the presence of chemical substance/The level of expressed mRNA in the absence of chemical substance (yeast gene YCL069W): 0.9 | The level of expressed mRNA in the presence of chemical substance/The level of expressed mRNA in the absence of chemical substance (yeast gene YCR083W): 1.1 | The level of expressed mRNA in the presence of chemical substance/The level of expressed mRNA in the absence of chemical substance (yeast gene YDL100C): 1.0 | The level of expressed mRNA in the presence of chemical substance/The level of expressed mRNA in the absence of chemical substance (yeast gene YDL168W): 2.3 | The level of expressed mRNA in the presence of chemical substance/The level of expressed mRNA in the absence of chemical substance (yeast gene YDR256C): 0.8 | The level of expressed mRNA in the presence of chemical substance/The level of expressed mRNA in the absence of chemical substance (yeast gene YDR453C): 1.1 | The level of expressed mRNA in the presence of chemical substance/The level of expressed mRNA in the absence of chemical substance (yeast gene YDR513W): 2.2 | The level of expressed mRNA in the presence of chemical substance/The level of expressed mRNA in the absence of chemical substance (yeast gene YDR538W): 0.9 | The level of expressed mRNA in the presence of chemical substance/The level of expressed mRNA in the absence of chemical substance (yeast gene YEL027W): 1.2 | The level of expressed mRNA in the presence of chemical substance/The level of expressed mRNA in the absence of chemical substance (yeast gene YEL065W): 0.3 | The level of expressed mRNA in the presence of chemical substance/The level of expressed mRNA in the absence of chemical substance (yeast gene YER185W): 2.0 | The level of expressed mRNA in the presence of chemical substance/The level of expressed mRNA in the absence of chemical substance (yeast gene YFL050C): 0.7 | The level of expressed mRNA in the presence of chemical substance/The level of expressed mRNA in the absence of chemical substance (yeast gene YGL013C): 0.9 | The level of expressed mRNA in the presence of chemical substance/The level of expressed mRNA in the absence of chemical substance (yeast gene YGL254W): 1.2 | The level of expressed mRNA in the presence of chemical substance/The level of expressed mRNA in the absence of chemical substance (yeast gene YGR088W): 1.3 | The level of expressed mRNA in the presence of chemical substance/The level of expressed mRNA in the absence of chemical substance (yeast gene YGR138C): 1.1 | The level of expressed mRNA in the presence of chemical substance/The level of expressed mRNA in the absence of chemical substance (yeast gene YGR197C): 1.1 | The level of expressed mRNA in the presence of chemical substance/The level of expressed mRNA in the absence of chemical substance (yeast gene YGR209C): 1.6 | The level of expressed mRNA in the presence of chemical substance/The level of expressed mRNA in the absence of chemical substance (yeast gene YGR224W): 0.9 | The level of expressed mRNA in the presence of chemical substance/The level of expressed mRNA in the absence of chemical substance (yeast gene YHL040C): 1.6 | The level of expressed mRNA in the presence of chemical substance/The level of expressed mRNA in the absence of chemical substance (yeast gene YHL047C): 0.6 | The level of expressed mRNA in the presence of chemical substance/The level of expressed mRNA in the absence of chemical substance (yeast gene YHR008C): 1.3 | The level of expressed mRNA in the presence of chemical substance/The level of expressed mRNA in the absence of chemical substance (yeast gene YHR048W): 2.5 | The level of expressed mRNA in the presence of chemical substance/The level of expressed mRNA in the absence of chemical substance (yeast gene YHR053C): 3.5 | The level of expressed mRNA in the presence of chemical substance/The level of expressed mRNA in the absence of chemical substance (yeast gene YHR055C): 4.4 | The level of expressed mRNA in the presence of chemical substance/The level of expressed mRNA in the absence of chemical substance (yeast gene YIR002C): 0.8 | The level of expressed mRNA in the presence of chemical substance/The level of expressed mRNA in the absence of chemical substance (yeast gene YIR038C): 1.3 | The level of expressed mRNA in the presence of chemical substance/The level of expressed mRNA in the absence of chemical substance (yeast gene YJL101C): 2.1 | The level of expressed mRNA in the presence of chemical substance/The level of expressed mRNA in the absence of chemical substance (yeast gene YJR104C): 1.4 | The level of expressed mRNA in the presence of chemical substance/The level of expressed mRNA in the absence of chemical substance (yeast gene YKL026C): 2.7 | The level of expressed mRNA in the presence of chemical substance/The level of expressed mRNA in the absence of chemical substance (yeast gene YKL064W): 0.6 | The level of expressed mRNA in the presence of chemical substance/The level of expressed mRNA in the absence of chemical substance (yeast gene YKR066C): 0.9 | The level of expressed mRNA in the presence of chemical substance/The level of expressed mRNA in the absence of chemical substance (yeast gene YKR105C): 0.8 | The level of expressed mRNA in the presence of chemical substance/The level of expressed mRNA in the absence of chemical substance (yeast gene YKR106W): 1.3 | The level of expressed mRNA in the presence of chemical substance/The level of expressed mRNA in the absence of chemical substance (yeast gene YLL028W): 0.6 | The level of expressed mRNA in the presence of chemical substance/The level of expressed mRNA in the absence of chemical substance (yeast gene YLL057C): 2.2 | The level of expressed mRNA in the presence of chemical substance/The level of expressed mRNA in the absence of chemical substance (yeast gene YLL060C): 12.5 | The level of expressed mRNA in the presence of chemical substance/The level of expressed mRNA in the absence of chemical substance (yeast gene YLR043C): 1.4 | The level of expressed mRNA in the presence of chemical substance/The level of expressed mRNA in the absence of chemical substance (yeast gene YLR046C): 0.7 | The level of expressed mRNA in the presence of chemical substance/The level of expressed mRNA in the absence of chemical substance (yeast gene YML028W): 1.0 | The level of expressed mRNA in the presence of chemical substance/The level of expressed mRNA in the absence of chemical substance (yeast gene YML116W): 4.1 | The level of expressed mRNA in the presence of chemical substance/The level of expressed mRNA in the absence of chemical substance (yeast gene YMR015C): 0.7 | The level of expressed mRNA in the presence of chemical substance/The level of expressed mRNA in the absence of chemical substance (yeast gene YMR038C): 1.9 | The level of expressed mRNA in the presence of chemical substance/The level of expressed mRNA in the absence of chemical substance (yeast gene YNL239W): 1.0 | The level of expressed mRNA in the presence of chemical substance/The level of expressed mRNA in the absence of chemical substance (yeast gene YNL241C): 1.3 | The level of expressed mRNA in the presence of chemical substance/The level of expressed mRNA in the absence of chemical substance (yeast gene YNL259C): 1.6 | The level of expressed mRNA in the presence of chemical substance/The level of expressed mRNA in the absence of chemical substance (yeast gene YOL158C): 0.7 | The level of expressed mRNA in the presence of chemical substance/The level of expressed mRNA in the absence of chemical substance (yeast gene YOR031W): 2.6 | The level of expressed mRNA in the presence of chemical substance/The level of expressed mRNA in the absence of chemical substance (yeast gene YOR153W): 1.6 | The level of expressed mRNA in the presence of chemical substance/The level of expressed mRNA in the absence of chemical substance (yeast gene YOR247W): 1.7 | The level of expressed mRNA in the presence of chemical substance/The level of expressed mRNA in the absence of chemical substance (yeast gene YOR251C): 1.1 | The level of expressed mRNA in the presence of chemical substance/The level of expressed mRNA in the absence of chemical substance (yeast gene YOR273C): 0.7 | The level of expressed mRNA in the presence of chemical substance/The level of expressed mRNA in the absence of chemical substance (yeast gene YPL163C): 0.6 | The level of expressed mRNA in the presence of chemical substance/The level of expressed mRNA in the absence of chemical substance (yeast gene YPR200C): 47.7
